# Experiments:
# [1] = system: 28 target genes (defense genes) in apple tree leaves; experiment: Test 1: relative expression of the 28 defense genes (qPCR, ΔΔCt) in apple tree seedling leaves subjected to NDS treatments and abiotic stresses; format: in vivo, apple tree seedlings (Golden Delicious); conditions: for Relative expression ACCO (log base 2) / Relative expression APOX (log base 2) / Relative expression CAD (log base 2) / Relative expression CHS (log base 2) / Relative expression CSL (log base 2) / Relative expression CalS (log base 2) / Relative expression DFR (log base 2) / Relative expression EDS1 (log base 2) / Relative expression EIN3 (log base 2) / Relative expression FPPS (log base 2) / Relative expression Far (log base 2) / Relative expression GST (log base 2) / Relative expression HMGR (log base 2) / Relative expression JAR (log base 2) / Relative expression LOX2 (log base 2) / Relative expression POX (log base 2) / Relative expression PPO (log base 2) / Relative expression Pect (log base 2) / Relative expression WRKY (log base 2): abiotic stress; for Relative expression of ANS / Relative expression of PAL / Relative expression of PR-1 / Relative expression of PR-2 / Relative expression of PR-4 / Relative expression of PR-5 / Relative expression of PR-8 / Relative expression of PR-14 / Relative expression of PR-15: vs water control, abiotic stress treatment
# [2] = system: 28 target genes (defense genes) in apple tree leaves; experiment: Test 2: analysis of defenses, expression of the 28 genes (qPCR) in apple tree seedlings sprayed with 10 NDS candidates, with or without hydrogen peroxide; format: in vivo, apple tree seedlings (Golden Delicious)
smiles,measurement,setting,value
"C[n+]1ccc(-c2cc[n+](C)cc2)cc1 [Paraquat, paraquat dichloride x-hydrate]",effect on the modulation of target gene expression (in words),[1]; Test 1,strongly activates some genes
same,Relative expression ACCO (log base 2),"[1]; J1, relative to water control",−1.33
same,Relative expression APOX (log base 2),"[1]; J1, relative to water control",0.00
same,Relative expression CAD (log base 2),"[1]; J1, relative to water control",0.04
same,Relative expression CHS (log base 2),"[1]; J1, relative to water control",−1.56
same,Relative expression CSL (log base 2),"[1]; J1, relative to water control",2.29
same,Relative expression CalS (log base 2),"[1]; J1, relative to water control",0.00
same,Relative expression DFR (log base 2),"[1]; J1, relative to water control",−0.74
same,Relative expression EDS1 (log base 2),"[1]; J1, relative to water control",0.83
same,Relative expression EIN3 (log base 2),"[1]; J1, relative to water control",0.00
same,Relative expression FPPS (log base 2),"[1]; J1, relative to water control",1.02
same,Relative expression Far (log base 2),"[1]; J1, relative to water control",2.76
same,Relative expression GST (log base 2),"[1]; J1, relative to water control",1.99
same,Relative expression HMGR (log base 2),"[1]; J1, relative to water control",2.85
same,Relative expression JAR (log base 2),"[1]; J1, relative to water control",0.00
same,Relative expression LOX2 (log base 2),"[1]; J1, relative to water control",−0.58
same,Relative expression POX (log base 2),"[1]; J1, relative to water control",0.00
same,Relative expression PPO (log base 2),"[1]; J1, relative to water control",0.67
same,Relative expression Pect (log base 2),"[1]; J1, relative to water control",0.00
same,Relative expression WRKY (log base 2),"[1]; J1, relative to water control",4.01
same,Relative expression ACCO (log base 2),"[1]; J2, relative to water control",0.02
same,Relative expression APOX (log base 2),"[1]; J2, relative to water control",2.01
same,Relative expression CAD (log base 2),"[1]; J2, relative to water control",0.27
same,Relative expression CHS (log base 2),"[1]; J2, relative to water control",−1.49
same,Relative expression CSL (log base 2),"[1]; J2, relative to water control",4.42
same,Relative expression CalS (log base 2),"[1]; J2, relative to water control",0.42
same,Relative expression DFR (log base 2),"[1]; J2, relative to water control",−1.14
same,Relative expression EDS1 (log base 2),"[1]; J2, relative to water control",2.89
same,Relative expression EIN3 (log base 2),"[1]; J2, relative to water control",0.21
same,Relative expression FPPS (log base 2),"[1]; J2, relative to water control",0.15
same,Relative expression Far (log base 2),"[1]; J2, relative to water control",2.30
same,Relative expression GST (log base 2),"[1]; J2, relative to water control",1.83
same,Relative expression HMGR (log base 2),"[1]; J2, relative to water control",1.20
same,Relative expression JAR (log base 2),"[1]; J2, relative to water control",−0.81
same,Relative expression LOX2 (log base 2),"[1]; J2, relative to water control",−0.54
same,Relative expression POX (log base 2),"[1]; J2, relative to water control",4.26
same,Relative expression PPO (log base 2),"[1]; J2, relative to water control",6.27
same,Relative expression Pect (log base 2),"[1]; J2, relative to water control",2.17
same,Relative expression WRKY (log base 2),"[1]; J2, relative to water control",6.37
same,Relative expression ACCO (log base 2),"[1]; J3, relative to water control",0.41
same,Relative expression APOX (log base 2),"[1]; J3, relative to water control",1.48
same,Relative expression CAD (log base 2),"[1]; J3, relative to water control",−0.51
same,Relative expression CHS (log base 2),"[1]; J3, relative to water control",−2.04
same,Relative expression CSL (log base 2),"[1]; J3, relative to water control",5.43
same,Relative expression CalS (log base 2),"[1]; J3, relative to water control",0.01
same,Relative expression DFR (log base 2),"[1]; J3, relative to water control",−2.09
same,Relative expression EDS1 (log base 2),"[1]; J3, relative to water control",2.28
same,Relative expression EIN3 (log base 2),"[1]; J3, relative to water control",−0.11
same,Relative expression FPPS (log base 2),"[1]; J3, relative to water control",−1.83
same,Relative expression Far (log base 2),"[1]; J3, relative to water control",1.85
same,Relative expression GST (log base 2),"[1]; J3, relative to water control",0.80
same,Relative expression HMGR (log base 2),"[1]; J3, relative to water control",−0.24
same,Relative expression JAR (log base 2),"[1]; J3, relative to water control",−2.46
same,Relative expression LOX2 (log base 2),"[1]; J3, relative to water control",−2.37
same,Relative expression POX (log base 2),"[1]; J3, relative to water control",−0.53
same,Relative expression PPO (log base 2),"[1]; J3, relative to water control",4.63
same,Relative expression Pect (log base 2),"[1]; J3, relative to water control",−2.82
same,Relative expression WRKY (log base 2),"[1]; J3, relative to water control",2.76
same,Relative expression of ANS,[1]; J1,0.00 log2
same,Relative expression of PAL,[1]; J1,1.99 log2
same,Relative expression of PR-1,[1]; J1,0.55 log2
same,Relative expression of PR-2,[1]; J1,4.09 log2
same,Relative expression of PR-4,[1]; J1,7.10 log2
same,Relative expression of PR-5,[1]; J1,0.00 log2
same,Relative expression of PR-8,[1]; J1,0.00 log2
same,Relative expression of PR-14,[1]; J1,2.61 log2
same,Relative expression of PR-15,[1]; J1,0.00 log2
same,Relative expression of ANS,[1]; J2,−2.09 log2
same,Relative expression of PAL,[1]; J2,2.56 log2
same,Relative expression of PR-1,[1]; J2,3.00 log2
same,Relative expression of PR-2,[1]; J2,5.88 log2
same,Relative expression of PR-4,[1]; J2,6.93 log2
same,Relative expression of PR-5,[1]; J2,−3.05 log2
same,Relative expression of PR-8,[1]; J2,5.12 log2
same,Relative expression of PR-14,[1]; J2,6.04 log2
same,Relative expression of PR-15,[1]; J2,4.77 log2
same,Relative expression of ANS,[1]; J3,−0.78 log2
same,Relative expression of PAL,[1]; J3,0.66 log2
same,Relative expression of PR-1,[1]; J3,0.54 log2
same,Relative expression of PR-2,[1]; J3,2.53 log2
same,Relative expression of PR-4,[1]; J3,6.63 log2
same,Relative expression of PR-5,[1]; J3,−8.56 log2
same,Relative expression of PR-8,[1]; J3,5.36 log2
same,Relative expression of PR-14,[1]; J3,1.28 log2
same,Relative expression of PR-15,[1]; J3,−0.34 log2
OO [H202],ACCO expression,[2]; J2 + H2O2,0.60
same,APOX expression,[2]; J2 + H2O2,−0.37
same,CAD expression,[2]; J2 + H2O2,−0.32
same,CSL expression,[2]; J2 + H2O2,2.28
same,CalS expression,[2]; J2 + H2O2,−0.31
same,EDS1 expression,[2]; J2 + H2O2,1.12
same,EIN3 expression,[2]; J2 + H2O2,−0.20
same,FAR expression,[2]; J2 + H2O2,1.07
same,GST expression,[2]; J2 + H2O2,0.21
same,JAR expression,[2]; J2 + H2O2,−0.62
same,LOX2 expression,[2]; J2 + H2O2,−0.39
same,PECT expression,[2]; J2 + H2O2,0.01
same,POX expression,[2]; J2 + H2O2,2.12
same,WRKY expression,[2]; J2 + H2O2,1.42
same,ACCO expression,[2]; J3 + H2O2,0.37
same,APOX expression,[2]; J3 + H2O2,0.36
same,CAD expression,[2]; J3 + H2O2,0.30
same,CSL expression,[2]; J3 + H2O2,1.32
same,CalS expression,[2]; J3 + H2O2,0.04
same,EDS1 expression,[2]; J3 + H2O2,1.44
same,EIN3 expression,[2]; J3 + H2O2,0.33
same,FAR expression,[2]; J3 + H2O2,0.12
same,GST expression,[2]; J3 + H2O2,0.30
same,JAR expression,[2]; J3 + H2O2,0.09
same,LOX2 expression,[2]; J3 + H2O2,−0.03
same,PECT expression,[2]; J3 + H2O2,1.53
same,POX expression,[2]; J3 + H2O2,1.61
same,WRKY expression,[2]; J3 + H2O2,1.27
